{"source": "paper PMC3660600", "about": "“Brevilin A, a Novel Natural Product, Inhibits Janus Kinase Activity and Blocks STAT3 Signaling in Cancer Cells” (PLoS ONE, 2013)", "key": {"JAK3": {"target": "T1, JAK3 (Homo sapiens, UniProt P52333)", "T1 construct": "JH1 domain", "T1 sequence (P52333 781-1124 limits assumed)": "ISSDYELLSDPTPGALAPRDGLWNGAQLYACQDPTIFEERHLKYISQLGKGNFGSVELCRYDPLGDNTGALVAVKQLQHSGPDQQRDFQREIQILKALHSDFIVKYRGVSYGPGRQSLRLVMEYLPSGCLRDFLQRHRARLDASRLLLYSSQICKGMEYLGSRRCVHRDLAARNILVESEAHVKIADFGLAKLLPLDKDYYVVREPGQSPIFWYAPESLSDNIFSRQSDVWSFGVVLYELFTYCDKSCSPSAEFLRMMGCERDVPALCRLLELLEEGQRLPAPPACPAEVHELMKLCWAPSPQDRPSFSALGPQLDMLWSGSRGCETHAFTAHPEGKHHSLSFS", "test": "total tyrosine, STAT3 and STAT1 phosphorylation in HEK293T over-expressing JAK3-JH1, Western blot", "assay_type": "cell-based"}, "JAK1": {"target": "T2, JAK1 (Homo sapiens, UniProt P23458)", "T2 construct": "JH1 domain", "T2 sequence (P23458 875-1153 limits assumed)": "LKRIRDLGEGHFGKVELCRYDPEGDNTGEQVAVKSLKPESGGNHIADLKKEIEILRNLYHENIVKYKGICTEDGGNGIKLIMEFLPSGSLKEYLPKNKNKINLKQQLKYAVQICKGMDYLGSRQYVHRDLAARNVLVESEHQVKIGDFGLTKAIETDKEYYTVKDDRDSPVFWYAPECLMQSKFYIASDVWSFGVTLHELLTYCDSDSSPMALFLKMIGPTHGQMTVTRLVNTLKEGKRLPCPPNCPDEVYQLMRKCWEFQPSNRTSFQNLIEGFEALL", "test": "total tyrosine, STAT3 and STAT1 phosphorylation in HEK293T over-expressing JAK1-JH1, Western blot", "assay_type": "cell-based"}, "Tyk2": {"target": "T3, Tyk2 (Homo sapiens, UniProt P29597)", "T3 construct": "JH1 tyrosine kinase domain, C-terminal Flag-His tag, purified from HEK293T", "T3 sequence (P29597 880-1187 limits assumed)": "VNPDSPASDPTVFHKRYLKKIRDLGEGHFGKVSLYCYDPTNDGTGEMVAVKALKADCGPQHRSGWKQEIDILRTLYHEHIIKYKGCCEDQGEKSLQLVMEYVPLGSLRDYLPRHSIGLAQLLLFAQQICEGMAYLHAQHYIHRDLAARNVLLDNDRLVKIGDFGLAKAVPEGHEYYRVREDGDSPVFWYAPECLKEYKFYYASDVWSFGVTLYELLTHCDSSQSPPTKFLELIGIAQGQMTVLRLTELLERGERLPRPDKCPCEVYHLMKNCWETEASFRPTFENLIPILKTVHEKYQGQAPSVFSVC", "test": "in vitro kinase assay with purified Tyk2-JH1 and recombinant hSTAT3 substrate, Western blot pTyr705-STAT3 ([…])", "assay_type": "biochemical"}, "c-Src": {"target": "c-Src (Homo sapiens, UniProt P12931)", "sequence (P12931 2-536)": "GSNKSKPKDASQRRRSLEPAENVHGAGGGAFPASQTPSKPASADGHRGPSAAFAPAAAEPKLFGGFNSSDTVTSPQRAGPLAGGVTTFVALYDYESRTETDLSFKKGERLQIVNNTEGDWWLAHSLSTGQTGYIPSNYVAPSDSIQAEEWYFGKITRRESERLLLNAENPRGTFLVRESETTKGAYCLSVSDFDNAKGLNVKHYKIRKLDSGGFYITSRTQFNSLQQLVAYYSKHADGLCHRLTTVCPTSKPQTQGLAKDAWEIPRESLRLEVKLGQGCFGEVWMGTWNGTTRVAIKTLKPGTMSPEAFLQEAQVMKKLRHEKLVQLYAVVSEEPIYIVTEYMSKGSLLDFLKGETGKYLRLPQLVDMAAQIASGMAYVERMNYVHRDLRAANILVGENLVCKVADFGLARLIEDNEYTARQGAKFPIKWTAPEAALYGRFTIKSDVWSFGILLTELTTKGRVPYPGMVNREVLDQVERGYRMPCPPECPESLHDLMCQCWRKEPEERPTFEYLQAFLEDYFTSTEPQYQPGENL", "test": "phosphotyrosine Western blot of immunoprecipitated Flag-c-Src from treated HEK293T cells ([…], […] h)", "assay_type": "cell-based"}}, "data": [{"compound": "C/C=C(/C)C(=O)O[C@H]1[C@@H]2[C@H](C)C(=O)O[C@@H]2C[C@@H](C)[C@@H]2C=CC(=O)[C@]21C", "note": "[Brevilin A]", "values": [{"measurement": "IC50", "setting": "JAK3", "value": "IC50 measurements of four JAKs-JH1 truncated kinases."}, {"measurement": "IC50", "setting": "JAK1", "value": "IC50 measurements of four JAKs-JH1 truncated kinases."}, {"measurement": "in vitro kinase assay with purified Tyk2-JH1 and recombinant hSTAT3 substrate, W", "setting": "Tyk2", "value": "Western-Blot showed that Brevilin A inhibited Tyk2-JH1 kinase activity directly"}]}, {"compound": "Cc1cc(Nc2ncc3cc(-c4c(Cl)cccc4Cl)c(=O)n(C)c3n2)ccc1F", "note": "[PD-180970]", "values": [{"measurement": "phosphotyrosine Western blot of immunoprecipitated Flag-c-Src from treated HEK29", "setting": "c-Src", "value": "IP results showed that PD180970 was able to decrease Src phosphorylation while Brevilin A was not"}]}]}
